In EP4389117A1, “PROGESTERONE FORMULATION” (Besins Healthcare Distribution FZ-LLC, priority 2022, dated 2024):
Like-named read-outs stand apart in the source and are kept apart here.

Assays:
[1] = Particle size distribution (PSD) measurement by laser light diffractometry, Malvern Mastersizer 2000; format: physicochemical; conditions: starting powder before wet-medium-milling
Protocol: In this document, any particle size characteristic of the wet-media-milled progesterone particles is determined using laser light diffractometry and is based on a volume weighted particle size distribution, unless specifically indicated otherwise. […] As will be understood by those skilled in the art, the term "Dv50" as used herein refers to the point in the size distribution, up to and including which, 50% of the total volume of material in the sample is 'contained'. […] Particle size distribution ('PSD') characteristics are determined using a Malvern® Mastersizer 2000 apparatus equipped with a Hydro 2000 SM wet sample dispersion unit, operated with the settings summarized in table 1. Table 1 - PSD measurement settings [table]

[2] = single 200 mg oral dose, cited from earlier work

Structure (SMILES): CC(=O)[C@H]1CC[C@H]2[C@@H]3CCC4=CC(=O)CC[C@]4(C)[C@H]3CC[C@]12C [progesterone, pregn-4-ene-3,20-dione]
- Dv10 [1]: 4.7
- Dv50 [1]: 38.4
- Dv90 [1]: 74.6
- peak levels of progesterone compared to plain milled progesterone ([2]; as a consequence of micronization): 1.4 fold
- peak levels of progesterone compared to plain milled progesterone ([2]; as a consequence of the suspension in oil): 1.2 fold
- peak levels of progesterone compared to plain milled progesterone ([2]; combination of micronization and the suspension in oil): 3.2 fold
